The values below come from patent publication US20250228858A1, “ANTI-CANCER COMBINATION THERAPY” (Boehringer Ingelheim International GmbH, priority 2023, published 2025).

In data set [1] the test system is HER2-overexpressing human gastric cancer cell line NCI-N87. As to the kind of experiment: NCI-N87 subcutaneous xenograft, zongertinib with T-DM1. The data set is classed as in vivo, NMRI-Foxn1^nu mice. The following applies: for Regressions >30% / TGI: day 21; for Regressions >30%: tumors regressed/total; for Time to reach 300 mm^3: median, after stop of treatment at day 21. How it is done:
The study is performed in human gastric cancer cell line NCI-N87 grown as subcutaneous xenografts in NMRI-Foxn1^nu mice. Day 1 was the first day, day 21 the last day of treatment and day 22 the final day of analysis. […]
NCI-N87 is a HER2-overexpressing human gastric cancer cell line that can be obtained from the American Type Culture Collection (ATCC #CRL-5822). Cells are cultured in T175 tissue culture flasks at 37° C. and 5% CO2. The medium used is RPMI 1640 (ATCC #30-2001) supplemented with 10% fetal calf serum (FCS) (Thermo Scientific #SH 30084.03). Cultures are split twice weekly with a ratio of 1:2.
Mice are 6- to 10-week-old female NMRI-Foxn1^nu purchased from Taconic, Denmark. After arrival at the animal facility, mice are allowed to adjust to conditions at least for 5 days before they are used for the experiment. They are housed in Macrolon® type III cages in groups of 8 to 10 under pathogen-free, controlled and standardized conditions at 21.5±1.5° C. temperature, 55±10% humidity and 12-h light-dark cycle. Standardized diet (PROVIMI KLIBA) and autoclaved tap water are provided ad libitum. Subcutaneous microchips implanted under isoflurane anaesthesia are used to identify each mouse. Cage cards showing the study number, the animal identification number, the compound, the dose level, the administration route as well as the schedule remain with the animals throughout the study.
To establish subcutaneous tumors, NCI-N87 cells are harvested by centrifugation, washed and resuspended in PBS+5% FCS at 2.5×10^7 cells/ml. 100 μl cell suspension containing 2.5×10^6 cells is injected subcutaneously into the right flank of the mice (1 site per mouse).
The suspension is used for a maximum of 7 days.
T-DM1 (Kadcyla) can be purchased from Roche.
Mice in the control group are treated with vehicle, i.e.: • (i) 0.5% Natrosol, administered once daily for the duration of the treatment intragastrally by gavage needle with a volume of 10 ml/kg body weight; and • (ii) saline (0.9%), administered once every three weeks intravenously into the tail vein with a volume of 5 ml/kg.
Tumor volumes are measured three times a week with a caliper. The volume of each tumor [in mm^3] is calculated according to the formula: […]
To monitor side effects of treatment, mice are inspected daily for abnormalities and body weight is determined three times a week. […] In addition, animals with tumor sizes exceeding 1500 mm^3 in diameter, with ulcerating tumors or 18% body weight loss are euthanized for ethical reasons.
For a quick overview of possible treatment effects, the median of the tumor volume of each treatment group T is referred to the median of the control C as tumor growth inhibition (TGI) defined as: […]
To do so, the time until the tumor reached a critical volume of 300 mm^3 can be included as an additional evaluation parameter. If an animal is sacrificed for tumor necrosis without reaching the critical tumor volume, the time point is set to the last measurement time point and included as a censored observation.
The median survival time is derived from the Kaplan Meier survival curves per group as the time point with a survival probability (probability of reaching the critical tumor volume) of 0.5. For the treatment groups the median survival time is referred to the corresponding time of the control group as an estimate for the prolongation of the time to critical tumor volume by the therapy.

Data set [2] deals with HER2-overexpressing human breast cancer cell line BT-474. As to the kind of experiment: BT-474 orthotopic xenograft, zongertinib with T-DM1. It counts as in vivo, NMRI-Foxn1^nu mice. To be noted: for stable disease / Regressions >30% / TGI: day 42; for stable disease: number of tumors; for stable disease / mice that lost some weight and had to be euthanized: zongertinib 10 mg/kg qdx42, T-DM1 6 mg/kg q21dx2, monotherapies; for Regressions >30%: tumors regressed/total (partial response); for Regressions >30% / TGI: zongertinib 10 mg/kg qdx42 p.o., T-DM1 6 mg/kg q21dx2 i.v., alone or combined. How it is done: The study is performed in human breast cancer cell line BT-474 grown as orthotopic xenografts in NMRI-Foxn1^nu mice. Day 1 was the first day, day 42 the last day of treatment and final day of analysis.
BT-474 is obtained and cultured as described in Example 10 (see paragraph 10.1.2).
Tumors are established and randomized as described in Example 10 (see paragraph 10.14), except that mice are randomly distributed between the treatment and the vehicle control group (22 days after cell injection) when tumors are well established and have reached volumes of 84 to 310 mm^3.
Tumor volumes and side effects are monitored as described in Example 1 (see paragraph 1.1.6), except that control animals are sacrificed when the median tumor volume of the group reaches a size of approximately 710 mm^3.
The statistical evaluation of the tumor volume and the body weight is conducted on day 42 (last day of the study). Apart from this, statistical analysis was performed as described in Example 1 (see paragraph 1.1.7), with no evaluation of tumor growth after stop of treatment.

Setting [3] is: zongertinib 5 mg/kg qdx21 p.o., alone or combined with T-DM1 10 mg/kg q21dx1 i.v.
[4] abbreviates: zongertinib 20 mg/kg qdx21 p.o., T-DM1 10 mg/kg q21dx1 i.v., alone or combined.
Setting [5] is: zongertinib 20 mg/kg/day, T-DM1 10 mg/kg, alone or combined.

Values joined by “and” are separate entries in the source; they are usually repeats but may differ in a detail not shown here. Identical values can stand only once.

Consider `C=CC(=O)NC1CCN(c2ncc3ncnc(Nc4ccc(Oc5ccc6c(c5)ncn6C)c(C)c4)c3n2)CC1` [Zongertinib, N-{1-[8-({3-methyl-4-[(1-methyl-1H-1,3-benzodiazol-5-yl)oxy]phenyl}amino)-[1,3]diazino [5,4-d]pyrimidin-2-yl]piperidin-4-yl}prop-2-enamide], for which, in data set [1] (setting [3]), the “Regressions >30%” value is given as 0/8, the TGI is recorded as 45% and the “Time to reach 300 mm^3” value is 30.0 days. In addition, in data set [1] (setting [4]), the “Regressions >30%” value is given as 8/8 and the TGI is listed as 145%. For the same molecule, the “effect on tumor growth (median tumor volumes over time)” value in data set [1] (zongertinib 5 mg/kg/day, alone or combined with T-DM1 10 mg/kg) is “did not shrink tumors”. Further, the “effect on tumor growth (median tumor volumes over time)” value in data set [1] (setting [5]) was “induced deep and persistent tumor shrinkage”. Also, in data set [2], the stable disease entry was “no stable disease”; the “Regressions >30%” value is 0/7; the TGI was found to be 86%; the “mice that lost some weight and had to be euthanized” value is 1 out of 8. Also, in data set [2] (listed as zongertinib), the “Regressions >30%” value is reported as “no partial responses”.
With “trastuzumab emtansine [T-DM1, reference compound]”, in data set [1] (setting [4]), the “Regressions >30%” value was 1/8, the TGI came to 67% and the “Time to reach 300 mm^3” value worked out at 39.5 days. In data set [1] (setting [5]), the “effect on tumor growth (median tumor volumes over time)” value is “suppressed the growth of NCI-N87 tumors but did not shrink them”. Further, in data set [2], the stable disease stood at 3; the “Regressions >30%” value was 1 and 1/5; the TGI is on record as 85%; the “mice that lost some weight and had to be euthanized” value is 2 out of 8.
